Our source for the Kd values is publication PMC3433420 (PLoS ONE, 2012).

One experiment concerns the target T1, RASA1-N SH2 domain (Homo sapiens, UniProt P20936).
T1 sequence (P20936 181-272 limits assumed): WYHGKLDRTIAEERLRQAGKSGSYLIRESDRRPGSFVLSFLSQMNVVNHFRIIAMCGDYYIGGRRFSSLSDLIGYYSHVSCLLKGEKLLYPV
Description: FP saturation binding assay.

The next experiment addresses T2, PLCG1-C SH2 domain (Homo sapiens, UniProt P19174).
T2 construct: The 6X His-tagged SH2 domain proteins used in the assay, PLCG1-C, SHC4, VAV2; thioredoxin; made in house; host or cells: E. coli BL21(DE3)pLysS
T2 sequence (P19174 668-756 limits assumed): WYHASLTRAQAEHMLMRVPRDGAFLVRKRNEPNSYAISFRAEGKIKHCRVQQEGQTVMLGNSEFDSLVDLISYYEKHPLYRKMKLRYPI
The experiment in a line: biochemical. It is filed as binding. Particulars: high-confidence ErbB interactions.

Experiment [1] concerns the target PIK3R2-NC tandem SH2 domains (Homo sapiens, UniProt O00459). Description: FP saturation binding assay.
Experiment [2] has as its target T3, PLCG1-NC tandem SH2 domains (Homo sapiens, UniProt P19174).
T3 construct: the tandem protein was included in our analysis with all internal amino acids linking the domains; 6X His; thioredoxin; made in house; host or cells: E. coli BL21(DE3)pLysS
T3 sequence (P19174 550-756 limits assumed): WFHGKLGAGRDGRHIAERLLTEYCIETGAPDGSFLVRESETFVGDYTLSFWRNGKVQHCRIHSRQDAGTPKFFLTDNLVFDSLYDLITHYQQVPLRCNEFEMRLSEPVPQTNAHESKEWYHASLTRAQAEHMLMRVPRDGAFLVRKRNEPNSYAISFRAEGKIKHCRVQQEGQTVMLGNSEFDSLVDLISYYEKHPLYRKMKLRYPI
Description: FP saturation binding assay. Particulars: high-confidence ErbB interactions.

[3] abbreviates: Protein PLCG1-NC, FP saturation binding, mean over replicate hits.
The mark [4] stands for this setting: protein PLCG1-NC, FP, mean of replicate hits.

As a reminder, the Kd is the free concentration of one partner at which half of the binding sites on the other are occupied at equilibrium, for simple one-to-one binding. A lower Kd goes with a tighter complex.

SMILES strings stand for the structures. Residues, ends and D or L forms follow the SMILES beside them.

Chain of PIK3R2-NC tandem SH2 domains (O00459 330-716 limits assumed): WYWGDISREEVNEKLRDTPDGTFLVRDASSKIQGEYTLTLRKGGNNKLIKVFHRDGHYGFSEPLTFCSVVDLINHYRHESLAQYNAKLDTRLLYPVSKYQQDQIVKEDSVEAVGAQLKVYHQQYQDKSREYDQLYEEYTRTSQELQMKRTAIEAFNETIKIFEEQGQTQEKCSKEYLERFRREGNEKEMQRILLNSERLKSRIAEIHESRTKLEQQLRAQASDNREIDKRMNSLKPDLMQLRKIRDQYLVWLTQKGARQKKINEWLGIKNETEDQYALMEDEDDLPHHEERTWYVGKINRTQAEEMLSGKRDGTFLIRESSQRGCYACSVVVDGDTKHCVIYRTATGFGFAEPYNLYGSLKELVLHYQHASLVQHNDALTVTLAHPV

With `CC(C)C[C@H](NC(=O)[C@H](CC(N)=O)NC(=O)[C@@H](N)CC(=O)O)C(=O)N[C@@H](Cc1ccc(O)cc1)C(=O)N[C@@H](Cc1ccc(OP(=O)(O)O)cc1)C(=O)N[C@@H](Cc1c[nH]c2ccccc12)C(=O)N[C@@H](CC(=O)O)C(=O)N[C@@H](CCC(N)=O)C(=O)N[C@@H](CC(=O)O)C(=O)N1CCC[C@H]1C(=O)N1CCC[C@H]1C(=O)N[C@@H](CCC(=O)O)C(=O)N[C@@H](CC(=O)O)C(=O)O` [ErbB2 1222 13-mer] (HELM PEPTIDE1{D.N.L.Y.[O=C([C@H](Cc1ccc(OP(=O)(O)O)cc1)N[*:1])[*:2]].W.D.Q.D.P.P.E.D}$$$$V2.0), the Kd on RASA1-N SH2 domain came out at 4.29 µM; at PLCG1-C SH2 domain (Protein PLCG1-C, FP saturation binding, mean over replicate hits), 0.78 µM; in experiment [1], 7.81 µM; in experiment [2] (setting [3]), 1.28 µM.

Consider `CC(C)C[C@H](NC(=O)[C@H](Cc1ccc(OP(=O)(O)O)cc1)NC(=O)[C@H](CCC(=O)O)NC(=O)[C@H](CCC(=O)O)NC(=O)[C@H](C)NC(=O)[C@@H](N)CC(=O)O)C(=O)N[C@H](C(=O)N1CCC[C@H]1C(=O)N[C@@H](CCC(N)=O)C(=O)N[C@@H](CCC(N)=O)C(=O)NCC(=O)N[C@@H](Cc1ccccc1)C(=O)N[C@@H](CC(=O)O)C(=O)O)C(C)C` [ErbB2 1023 13-mer] (HELM PEPTIDE1{D.A.E.E.[O=C([C@H](Cc1ccc(OP(=O)(O)O)cc1)N[*:1])[*:2]].L.V.P.Q.Q.G.F.D}$$$$V2.0), for which the Kd at RASA1-N SH2 domain is 5.49 µM; in experiment [1], 6.09 µM; in experiment [2] (setting [3]), 1.3 µM.

Turning to `CC(C)[C@H](NC(=O)[C@H](CC(=O)O)NC(=O)[C@@H]1CCCN1C(=O)[C@H](CCC(N)=O)NC(=O)[C@H](CC(N)=O)NC(=O)[C@@H](NC(=O)[C@H](Cc1ccc(OP(=O)(O)O)cc1)NC(=O)[C@H](CCC(=O)O)NC(=O)[C@@H]1CCCN1C(=O)[C@H](CCC(N)=O)NC(=O)[C@@H]1CCCN1)C(C)C)C(=O)N[C@@H](CCCNC(=N)N)C(=O)N[C@@H](CC(=O)O)C(=O)O` [ErbB2 1139 13-mer] (HELM PEPTIDE1{P.Q.P.E.[O=C([C@H](Cc1ccc(OP(=O)(O)O)cc1)N[*:1])[*:2]].V.N.Q.P.D.V.R.D}$$$$V2.0), the Kd in experiment [1] is 5.81 µM; in experiment [2] (setting [3]), 3.38 µM.

For `CSCC[C@H](NC(=O)[C@H](Cc1ccc(OP(=O)(O)O)cc1)NC(=O)[C@H](CCC(=O)O)NC(=O)[C@H](Cc1ccc(O)cc1)NC(=O)CNC(=O)[C@@H](N)CC(C)C)C(=O)N[C@@H](CC(=O)O)C(=O)N[C@H](C(=O)NCC(=O)N[C@@H](CO)C(=O)N[C@@H](CC(=O)O)C(=O)N[C@@H](CC(C)C)C(=O)N[C@@H](CC(=O)O)C(=O)O)C(C)C` [ErbB3 1224 13-mer] (HELM PEPTIDE1{L.G.Y.E.[O=C([C@H](Cc1ccc(OP(=O)(O)O)cc1)N[*:1])[*:2]].M.D.V.G.S.D.L.D}$$$$V2.0), the dissociation constant Kd came out at 1.24 µM on RASA1-N SH2 domain, 3.31 µM in experiment [1] and 4.22 µM in experiment [2] (setting [4]).

In the case of `CSCC[C@H](NC(=O)[C@H](CCC(=O)O)NC(=O)[C@H](CCC(=O)O)NC(=O)[C@H](Cc1ccc(OP(=O)(O)O)cc1)NC(=O)CNC(=O)[C@H](CCC(N)=O)NC(=O)[C@H](CCC(=O)O)NC(=O)[C@@H](N)CO)C(=O)N[C@@H](CCCNC(=N)N)C(=O)N[C@@H](C)C(=O)N[C@@H](Cc1ccccc1)C(=O)N[C@@H](CCC(N)=O)C(=O)N[C@@H](CC(=O)O)C(=O)O` [ErbB3 1289 13-mer] (HELM PEPTIDE1{S.E.Q.G.[O=C([C@H](Cc1ccc(OP(=O)(O)O)cc1)N[*:1])[*:2]].E.E.M.R.A.F.Q.D}$$$$V2.0), the Kd at RASA1-N SH2 domain turned out to be 8.83 µM; in experiment [2] (setting [4]), 6.14 µM.

As for `CSCC[C@H](NC(=O)[C@H](Cc1ccc(OP(=O)(O)O)cc1)NC(=O)CNC(=O)[C@H](CCC(=O)O)NC(=O)[C@H](CCC(=O)O)NC(=O)[C@H](CC(=O)O)NC(=O)[C@H](CC(C)C)NC(=O)[C@H](CCC(=O)O)NC(=O)CNC(=O)[C@H](CCCNC(=N)N)NC(=O)[C@@H]1CCCN1)C(=O)N[C@H](C(=O)N1CCC[C@H]1C(=O)N[C@@H](CCSC)C(=O)N[C@@H](CCCNC(=N)N)C(=O)N[C@@H](CC(=O)O)C(=O)N[C@@H](CCCCN)C(=O)N[C@@H](CC(=O)O)C(=O)O)[C@@H](C)O` [ErbB4 1150 18-mer] (HELM PEPTIDE1{P.R.G.E.L.D.E.E.G.[O=C([C@H](Cc1ccc(OP(=O)(O)O)cc1)N[*:1])[*:2]].M.T.P.M.R.D.K.D}$$$$V2.0), the Kd turned out to be 0.61 µM on RASA1-N SH2 domain; 3.1 µM at PLCG1-C SH2 domain (protein PLCG1-C, FP, mean of replicate hits); 2.82 µM in experiment [2] (setting [4]).

Consider `CC(C)C[C@H](NC(=O)[C@H](Cc1ccc(OP(=O)(O)O)cc1)NC(=O)[C@H](CC(C)C)NC(=O)[C@@H]1CCCN1C(=O)[C@H](CCC(=O)O)NC(=O)[C@H](CC(N)=O)NC(=O)[C@@H](NC(=O)[C@H](Cc1ccc(O)cc1)NC(=O)[C@H](CCC(=O)O)NC(=O)[C@H](CC(=O)O)NC(=O)[C@@H](N)CCC(=O)O)C(C)C)C(=O)N[C@@H](CC(N)=O)C(=O)N[C@H](C(=O)N[C@@H](Cc1ccccc1)C(=O)N[C@@H](C)C(=O)N[C@@H](CC(N)=O)C(=O)N[C@H](C(=O)N[C@@H](CC(=O)O)C(=O)O)[C@@H](C)O)[C@@H](C)O` [ErbB4 1208 18-mer] (HELM PEPTIDE1{E.D.E.Y.V.N.E.P.L.[O=C([C@H](Cc1ccc(OP(=O)(O)O)cc1)N[*:1])[*:2]].L.N.T.F.A.N.T.D}$$$$V2.0), for which the Kd was found to be 6.4 µM at RASA1-N SH2 domain; 2.07 µM at PLCG1-C SH2 domain (protein PLCG1-C, mean of replicate hits); 0.97 µM in experiment [2] (protein PLCG1-NC, mean of replicate hits).
